Experimental data from patent publication US5670503A, “Pyrazole derivatives” (Fujisawa Pharmaceutical Co., Ltd., priority 1993, dated 1997).

What was measured:
[1] = tested on: production of Interleukin-1 (IL-1); assay: Inhibitory activity on the production of Interleukin-1 (IL-1) in LPS-stimulated human peripheral blood monocyte; format: cell-based; details: 48 h; purified human peripheral blood monocyte, LPS 1 μg/10^4 cells, 2 days at 37° C., IL-1β ELISA of supernatant; read-out: IC50 (inhibition of IL-1 production)
Method: Purified human peripheral blood monocyte were stimulated with bacterial lipopolysaccharide (1 μg/10^4 cells) in the absence or presence of appropriately diluted test compound for 2 days at 37° C. in a humidified 5% CO2 atmosphere. Culture supernatants were tested for IL-1 ELISA assay.
Test compound was dissolved in absolute DMSO (dimethyl sulfoxide) to achieve 10 mM stock solutions and was subsequently diluted in serum free RPMI1640.
IL-1 levels were quantified by a commercial ELISA kit (Ohtsuka assay, Japan) using a sandwich technique. The sensitivity levels for the detection of IL-1β were 20 pg/ml.
(§1) The inhibitory concentration that caused a 50% inhibition (IC50) was calculated by regression analysis of the dose-response data.

[2] = tested on: production of tumor necrosis factor (TNF); assay: Inhibitory activity on the production of tumor necrosis factor (TNF) in LPS-stimulated human peripheral blood monocyte; format: cell-based; details: 48 h; purified human peripheral blood monocyte, LPS 1 μg/10^4 cells, 2 days at 37° C., TNF ELISA of supernatant; read-out: IC50 (inhibition of TNF production)
Method: Purified human peripheral blood monocyte were stimulated with bacterial lipopolysaccharide (1 μg/10^4 cells) in the absence or presence of appropriately diluted test compound for 2 days at 37° C. in a humidified 5% CO2 atmosphere. Culture supernatants were tested for TNF ELISA assay.
TNF levels were quantified by a commercial ELISA kit (Endogen, Inc. USA) using a sandwich technique. The sensitivity levels for the detection of TNF were 12 pg/ml.
as §1

IC50 [1] | SMILES | IC50 [2]
92 nM | CC(C)(C)CN1CCn2nc(-c3ccc(F)cc3)c(-c3ccncc3)c2N1 [Example 16-(5), 7-(4-Fluorophenyl)-2-neopentyl-8-(pyridin-4-yl)-1,2,3,4-tetrahydropyrazolo[5,1-c][1,2,4]triazine] | 91 nM
88 nM | Fc1ccc(-c2nn3c(c2-c2ccncc2)NN(C2CCCCC2)CC3)cc1 [Example 18-(2), 2-Cyclohexyl-7-(4-Fluorophenyl)-8-(pyridin-4-yl)-1,2,3,4-tetrahydropyrazolo[5,1-c][1,2,4]triazine] | 110 nM
